Measurements taken from patent US8106055B2, “Substituted amide compounds” (Gruenenthal GmbH, priority 2007, dated 2012).

Key:
[1] = target: T1, serotonin (5-HT) reuptake (Rattus norvegicus, UniProt P31652); assay: Inhibition of serotonin (5HT) reuptake in synaptosomes from rat brain; assay type: biochemical; details: for 5-HT (inhibition of reuptake of serotonin, % inhibition): test concentration of 10 μM; for inhibition at 10 µM: read-out: 5-HT reuptake
T1 construct: synaptosomes are freshly isolated from areas of the rat brain; from tissue; host or cells: rat brain synaptosomes (P2 fraction)
Summary of the method: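 Freshly isolated rat brain synaptosomes (P2 fraction) used for 5-HT reuptake. Test compound at 10 μM, activity given as % inhibition.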

[2] = target: T2, human bradykinin 1 receptor (B1R) (Homo sapiens, UniProt P46663); assay: Functional investigation on the human bradykinin 1 receptor (B1R), Ca2+ FLIPR assay in CHO K1 hB1R cells; assay type: cell-based; details: test substance 10 μM, Ca2+ FLIPR, CHO K1 hB1R cells; for B1R Ant. h [10 μM] % Inhibition: B1R antagonism human; for inhibition at 10 µM: CHO-K1, B1R antagonism human, read-out: B1R Ant. h [10 μM] % Inhibition
T2 construct: expressed in transfected cells; host or cells: CHO K1 cells
T2 sequence (P46663 1-353): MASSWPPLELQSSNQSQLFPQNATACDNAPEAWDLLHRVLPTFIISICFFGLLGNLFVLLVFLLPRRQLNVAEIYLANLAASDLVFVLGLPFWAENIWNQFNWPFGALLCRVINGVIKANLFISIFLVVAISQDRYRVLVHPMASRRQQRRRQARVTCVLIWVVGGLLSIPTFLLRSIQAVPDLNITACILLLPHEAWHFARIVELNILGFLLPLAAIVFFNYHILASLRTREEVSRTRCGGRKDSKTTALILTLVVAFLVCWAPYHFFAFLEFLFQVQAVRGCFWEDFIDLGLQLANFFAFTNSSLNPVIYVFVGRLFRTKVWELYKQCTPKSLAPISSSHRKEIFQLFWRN
Summary of the method: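 Stably transfected CHO K1 cells loaded with Fluo-4; FLIPR Ca2+ fluorescence peak (ex 488/em 540 nm). Compound added first (agonism vs Lys-Des-Arg9-bradykinin ≥50 nM human, Des-Arg9-bradykinin 10 μM rat), then after 10-20 min agonist at EC80; antagonism as % inhibition, IC50 from concentration series, n=2-3, N≥2.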

[3] = Table 2, test concentration 10 μM

T1 sequence (P31652 whole entry): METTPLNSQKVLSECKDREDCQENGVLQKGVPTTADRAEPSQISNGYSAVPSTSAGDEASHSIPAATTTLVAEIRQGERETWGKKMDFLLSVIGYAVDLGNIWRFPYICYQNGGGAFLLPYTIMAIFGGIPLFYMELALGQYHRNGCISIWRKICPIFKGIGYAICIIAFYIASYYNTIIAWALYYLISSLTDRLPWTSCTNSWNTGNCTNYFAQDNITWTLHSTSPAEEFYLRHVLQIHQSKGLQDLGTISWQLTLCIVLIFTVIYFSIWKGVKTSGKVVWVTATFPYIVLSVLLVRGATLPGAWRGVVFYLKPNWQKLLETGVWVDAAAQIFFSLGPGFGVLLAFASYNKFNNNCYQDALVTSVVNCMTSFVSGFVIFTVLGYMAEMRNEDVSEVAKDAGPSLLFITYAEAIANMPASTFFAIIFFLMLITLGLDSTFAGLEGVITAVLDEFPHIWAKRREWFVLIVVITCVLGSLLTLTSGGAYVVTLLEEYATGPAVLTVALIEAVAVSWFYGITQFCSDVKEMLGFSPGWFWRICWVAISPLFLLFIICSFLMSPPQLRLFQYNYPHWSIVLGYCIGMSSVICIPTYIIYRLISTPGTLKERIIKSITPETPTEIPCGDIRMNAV

SMILES: CN(C)C(c1cccc(F)c1)C1CCC(CNC(=O)COC2CCN(S(=O)(=O)c3ccc(F)cc3)C2)CC1 (centres unmarked) [Example 275]
- 5-HT (inhibition of reuptake of serotonin, % inhibition) [1]: 80%
- B1R Ant. h [10 μM] % Inhibition [2]: 15%

SMILES: COc1cc(C)c(S(=O)(=O)N2CCC(OCC(=O)NCC3CCC(C(c4cccc(F)c4)N(C)C)CC3)C2)c(C)c1C (centres unmarked) [Example 252]
- 5-HT (inhibition of reuptake of serotonin, % inhibition) [1]: 93%
- B1R Ant. h [10 μM] % Inhibition [2]: 59%

SMILES: COc1ccc(S(=O)(=O)N(C)CCOCC(=O)NC2CCC(C(c3cccs3)N(C)C)CC2)cc1OC (centres unmarked) [Example 206]
- 5-HT (inhibition of reuptake of serotonin, % inhibition) [1]: 84%
- B1R Ant. h [10 μM] % Inhibition [2]: −5%

SMILES: CN(C)C(c1cccs1)C1CCC(CCNC(=O)COC2CCN(S(=O)(=O)c3ccccc3)CC2)CC1 (centres unmarked) [Example 230]
- 5-HT (inhibition of reuptake of serotonin, % inhibition) [1]: 94%
- B1R Ant. h [10 μM] % Inhibition [2]: −16%

SMILES: CN(C)C(c1ccc(Cl)cc1)C1CCC(CNC(=O)COCCN(C)S(=O)(=O)c2ccc(F)cc2)CC1 (centres unmarked) [Example 263]
- 5-HT (inhibition of reuptake of serotonin, % inhibition) [1]: 102%
- B1R Ant. h [10 μM] % Inhibition [2]: 18%

SMILES: CN(C)C(c1ccccc1)C1CCC(CNC(=O)COCCN(C)S(=O)(=O)c2c(Cl)cc(Cl)cc2Cl)CC1 (centres unmarked) [Example 614, N-[4-(dimethylaminophenylmethyl)-cyclohexylmethyl]-2-{2-[(2,4,6-trichlorobenzenesulfonyl)-methylamino]-ethoxy}-acetamide]
- inhibition at 10 µM [1, 3]: 90%
- B1R Ant. h [10 μM] % Inhibition [2]: 102%

SMILES: CN(C)C(c1cccc(F)c1)C1CCC(CCNC(=O)COCCN(C)S(=O)(=O)c2ccc(F)cc2)CC1 (centres unmarked) [Example 218]
- 5-HT (inhibition of reuptake of serotonin, % inhibition) [1]: 101%
- B1R Ant. h [10 μM] % Inhibition [2]: 7%

SMILES: CN(C)C(c1ccccc1)C1CCC(CNC(=O)COCC2CCCN(S(=O)(=O)c3ccccc3)C2)CC1 (centres unmarked) [Example 129, N((4((dimethylamino)(phenyl)methyl)cyclohexyl)methyl)-2-((1-(phenylsulfonyl)piperidin-3-yl)methoxy)acetamide]
- 5-HT (inhibition of reuptake of serotonin, % inhibition) [1]: 95%
- B1R Ant. h [10 μM] % Inhibition [2]: −5%

SMILES: CN(C)C(c1cccc(F)c1)C1CCC(NC(=O)COC2CCN(S(=O)(=O)c3ccccc3)C2)CC1 (centres unmarked) [Example 271]
- 5-HT (inhibition of reuptake of serotonin, % inhibition) [1]: 93%
- B1R Ant. h [10 μM] % Inhibition [2]: −7%

SMILES: COc1cc(C)c(S(=O)(=O)N2CCN(CCOCC(=O)NCC3CCC(C(c4cccc(F)c4)N(C)C)CC3)CC2)c(C)c1C (centres unmarked) [Example 223]
- 5-HT (inhibition of reuptake of serotonin, % inhibition) [1]: 96%
- B1R Ant. h [10 μM] % Inhibition [2]: 52%

SMILES: CN(C)C(c1cccc(F)c1)C1CCC(NC(=O)COCCN(C)S(=O)(=O)c2ccc(F)cc2)CC1 (centres unmarked) [Example 205]
- 5-HT (inhibition of reuptake of serotonin, % inhibition) [1]: 84%
- B1R Ant. h [10 μM] % Inhibition [2]: −11%

SMILES: CN(C)C(c1ccc(Cl)cc1)C1CCC(CNC(=O)COC2CCCCC2N(C)S(=O)(=O)c2ccc(Cl)c(Cl)c2)CC1 (centres unmarked) [Example 269]
- 5-HT (inhibition of reuptake of serotonin, % inhibition) [1]: 87%
- B1R Ant. h [10 μM] % Inhibition [2]: 7%

SMILES: CN(C)C(c1cccc(F)c1)C1CCC(CCNC(=O)COCC2CCCN2S(=O)(=O)c2ccc(Cl)c(Cl)c2)CC1 (centres unmarked) [Example 202]
- 5-HT (inhibition of reuptake of serotonin, % inhibition) [1]: 98%
- B1R Ant. h [10 μM] % Inhibition [2]: 48%

SMILES: O=C(COCCN(C1CC1)S(=O)(=O)c1c(Cl)cc(Cl)cc1Cl)NC1CCC(C(c2ccccc2)N2CCCC2)CC1 (centres unmarked) [Example 603, 2-{2-[cyclopropyl-(2,4,6-trichlorobenzenesulfonyl)-amino]-ethoxy}-N-[4-(phenylpyrrolidin-1-ylmethyl)-cyclohexyl]-acetamide]
- inhibition at 10 µM [1, 3]: 74%
- inhibition at 10 µM [2]: 86%

SMILES: CN(C)C(c1cccc(F)c1)C1CCC(NC(=O)COCC2CCCN(S(=O)(=O)c3ccccc3)C2)CC1 (centres unmarked) [Example 266]
- 5-HT (inhibition of reuptake of serotonin, % inhibition) [1]: 97%
- B1R Ant. h [10 μM] % Inhibition [2]: 4%

SMILES: COc1ccc(S(=O)(=O)N(C)CCOCC(=O)NCC2CCC(C(c3ccccc3)N(C)C)CC2)cc1 (centres unmarked) [Example 242]
- 5-HT (inhibition of reuptake of serotonin, % inhibition) [1]: 77%
- B1R Ant. h [10 μM] % Inhibition [2]: 39%

SMILES: COc1ccc(S(=O)(=O)N2CCC(OCC(=O)NCC3CCC(C(c4ccc(Cl)cc4)N(C)C)CC3)C2)cc1OC (centres unmarked) [Example 260]
- 5-HT (inhibition of reuptake of serotonin, % inhibition) [1]: 88%
- B1R Ant. h [10 μM] % Inhibition [2]: −7%

SMILES: COc1cc(C)c(S(=O)(=O)N2CCC(OCC(=O)NC3CCC(C(c4cccc(F)c4)N(C)C)CC3)C2)c(C)c1 (centres unmarked) [Example 251]
- 5-HT (inhibition of reuptake of serotonin, % inhibition) [1]: 98%
- B1R Ant. h [10 μM] % Inhibition [2]: 81%

SMILES: CN(C)C(c1ccc(F)cc1)C1CCC(CCNC(=O)COC2CCCCC2N(C)S(=O)(=O)c2ccc(Cl)c(Cl)c2)CC1 (centres unmarked) [Example 244]
- 5-HT (inhibition of reuptake of serotonin, % inhibition) [1]: 88%
- B1R Ant. h [10 μM] % Inhibition [2]: 21%

SMILES: CN(C)C(c1ccccc1)C1CCC(NC(=O)COC2CCCN(S(=O)(=O)c3c(Cl)cc(Cl)cc3Cl)C2)CC1 (centres unmarked) [Example 608, N-[4-(dimethylaminophenylmethyl)-cyclohexyl]-2-[1-(2,4,6-trichlorobenzenesulfonyl)-piperidin-3-yloxy]-acetamide]
- inhibition at 10 µM [1, 3]: 81%
- inhibition at 10 µM [2]: 78%

SMILES: CN(C)C(c1ccc(Cl)cc1)C1CCC(CNC(=O)COCCN(C)S(=O)(=O)c2c(Cl)cccc2Cl)CC1 (centres unmarked) [Example 207]
- 5-HT (inhibition of reuptake of serotonin, % inhibition) [1]: 72%
- B1R Ant. h [10 μM] % Inhibition [2]: 104%

SMILES: CN(C)C(c1ccccc1)C1CCC(NC(=O)COCC2CCCN2S(=O)(=O)c2c(Cl)cc(Cl)cc2Cl)CC1 (centres unmarked) [Example 613, N-[4-(Dimethylaminophenylmethyl)-cyclohexyl]-2-[1-(2,4,6-trichlorobenzenesulfonyl)-pyrrolidin-2-ylmethoxy]-acetamide]
- 5-HT reuptake [1, 3]: 62 % inhibition
- B1R Ant. h [10 μM] % Inhibition [2]: 66%

SMILES: COc1ccc(S(=O)(=O)N2CCCCC2CCOCC(=O)NCCC2CCC(C(c3cccc(F)c3)N(C)C)CC2)cc1 (centres unmarked) [Example 213]
- 5-HT (inhibition of reuptake of serotonin, % inhibition) [1]: 98%
- B1R Ant. h [10 μM] % Inhibition [2]: 78%

SMILES: COc1cc(C)c(S(=O)(=O)N(C)CCOCC(=O)NCC2CCC(C(c3cccc(F)c3)N(C)C)CC2)c(C)c1 (centres unmarked) [Example 248]
- 5-HT (inhibition of reuptake of serotonin, % inhibition) [1]: 90%
- B1R Ant. h [10 μM] % Inhibition [2]: 104%

SMILES: CN(C)C(c1ccc(F)cc1)C1CCC(NC(=O)COC2CCCCC2N(C)S(=O)(=O)c2ccc(Cl)c(Cl)c2)CC1 (centres unmarked) [Example 256]
- 5-HT (inhibition of reuptake of serotonin, % inhibition) [1]: 84%
- B1R Ant. h [10 μM] % Inhibition [2]: 52%

SMILES: CN(C)C(c1cccc(F)c1)C1CCC(CCNC(=O)COC2CCN(S(=O)(=O)c3ccc(Cl)cc3)C2)CC1 (centres unmarked) [Example 247]
- 5-HT (inhibition of reuptake of serotonin, % inhibition) [1]: 89%
- B1R Ant. h [10 μM] % Inhibition [2]: 4%

SMILES: Cc1ccc(S(=O)(=O)N(C)CCOCC(=O)NCC2CCC(C(c3ccc(Cl)cc3)N(C)C)CC2)cc1 (centres unmarked) [Example 273]
- 5-HT (inhibition of reuptake of serotonin, % inhibition) [1]: 91%
- B1R Ant. h [10 μM] % Inhibition [2]: 25%

SMILES: CN(C)C(c1cccc(F)c1)C1CCC(CCNC(=O)COCCN(C)S(=O)(=O)c2ccc(OC(F)(F)F)cc2)CC1 (centres unmarked) [Example 215]
- 5-HT (inhibition of reuptake of serotonin, % inhibition) [1]: 90%
- B1R Ant. h [10 μM] % Inhibition [2]: 1%

SMILES: Cc1ccc(S(=O)(=O)N(C)CCOCC(=O)NC2CCC(C(c3cccs3)N(C)C)CC2)cc1 (centres unmarked) [Example 168, N-(4-((dimethylamino) (thiophen-2-yl)methyl)cyclohexyl)-2-(2-(N,4-dimethylphenylsulfamido)ethoxy)acetamide]
- 5-HT (inhibition of reuptake of serotonin, % inhibition) [1]: 85%
- B1R Ant. h [10 μM] % Inhibition [2]: −5%

SMILES: CN(C)C(c1cccc(F)c1)C1CCC(CNC(=O)COCC2CCCN(S(=O)(=O)c3ccccc3)C2)CC1 (centres unmarked) [Example 220]
- 5-HT (inhibition of reuptake of serotonin, % inhibition) [1]: 95%
- B1R Ant. h [10 μM] % Inhibition [2]: 6%

SMILES: COc1ccc(S(=O)(=O)N2CCCCC2COCC(=O)NC2CCC(C(c3cccs3)N(C)C)CC2)cc1 (centres unmarked) [Example 243]
- 5-HT (inhibition of reuptake of serotonin, % inhibition) [1]: 73%
- B1R Ant. h [10 μM] % Inhibition [2]: 16%

SMILES: Cc1ccc(S(=O)(=O)N2CCC(OCC(=O)NCCC3CCC(C(c4cccc(F)c4)N(C)C)CC3)C2)cc1 (centres unmarked) [Example 216]
- 5-HT (inhibition of reuptake of serotonin, % inhibition) [1]: 87%
- B1R Ant. h [10 μM] % Inhibition [2]: 20%

SMILES: COc1cc(C)c(S(=O)(=O)N2CCC(OCC(=O)NCCC3CCC(C(c4cccc(F)c4)N(C)C)CC3)C2)c(C)c1C (centres unmarked) [Example 253]
- 5-HT (inhibition of reuptake of serotonin, % inhibition) [1]: 96%
- B1R Ant. h [10 μM] % Inhibition [2]: 47%

SMILES: COc1ccc(S(=O)(=O)N2CCC(OCC(=O)NCCC3CCC(C(c4cccc(F)c4)N(C)C)CC3)C2)cc1OC (centres unmarked) [Example 262]
- 5-HT (inhibition of reuptake of serotonin, % inhibition) [1]: 90%
- B1R Ant. h [10 μM] % Inhibition [2]: −6%

SMILES: CN(C)C(c1ccccc1)C1CCC(NC(=O)COC2CCN(S(=O)(=O)c3c(Cl)cc(Cl)cc3Cl)C2)CC1 (centres unmarked) [Example 609, N-[4-(dimethylaminophenylmethyl)-cyclohexyl]-2-[1-(2,4,6-trichlorobenzenesulfonyl)-pyrrolidin-3-yloxy]-acetamide]
- inhibition at 10 µM [1, 3]: 86%
- inhibition at 10 µM [2]: 64%

SMILES: CN(C)C(c1ccc(Cl)cc1)C1CCC(CCNC(=O)COCCN(C)S(=O)(=O)c2c(Cl)cccc2Cl)CC1 (centres unmarked) [Example 274]
- 5-HT (inhibition of reuptake of serotonin, % inhibition) [1]: 81%
- B1R Ant. h [10 μM] % Inhibition [2]: 100%

SMILES: CN(C)C(c1cccc(F)c1)C1CCC(CNC(=O)COCCN(C)S(=O)(=O)c2ccc(F)cc2)CC1 (centres unmarked) [Example 229]
- 5-HT (inhibition of reuptake of serotonin, % inhibition) [1]: 89%
- B1R Ant. h [10 μM] % Inhibition [2]: 7%
